Measured values taken from patent publication EP4120837B1, “INHIBITORS OF CYTOKININ OXIDASE DERIVED FROM 2-(3-PHENYLUREIDO)BENZAMIDE, USE THEREOF AND PREPARATIONS CONTAINING THESE DERIVATIVES” (Univerzita Palackého v Olomouci, priority 2020, dated 2021).

molecular target: T1, ZmCKX1 (Zea mays, UniProt Q9T0N8); assay: ZmCKX1 inhibition, PMS/MTT assay; format: biochemical, maize; details: not given
T1 construct: made in house; host or cells: Yarrowia lipolytica
Method: The IC50 (concentration of a substance that causes 50% inhibition of the enzyme activity) was measured by PMS/MTT assay [phenazine methosulphate/3-(4,5-dimethylthiazol-2-yl)-2,5-diphenyltetrazolium bromide]. The assay was performed in 96-well microtiter plates. Each well contained a reaction mixture with a final concentration of: 0.1 M KH2PO4, pH 7.4, 1 mM MTT, 0.2 mM PMS, tested substance in a concentration range of 0.1 nM - 1 µM and 10 µM N^6-isopentenyladenine (iP) as a substrate. To this reaction mixture 100 µL of medium containing the active enzyme ZmCKX1 was added. The enzyme was produced by the yeast Yarrowia lipolytica and isolated according to the protocol (Kopečný D. et al., 2005, […] 87:1011-1022). The plates were incubated for 30 min at 37 °C and the enzymatic reaction was stopped by the addition of 25 µL of 35% acetic acid. Then, the absorbance at 578 nm was measured on a spectrophotometer, and the absorbance of the sample without the substrate was substracted as a reference value. The IC50 value was determined from the concentration-dependent curves in GraphPad Prism software. The values shown in Table 1 are the average of at least two measurements each performed in three repetitions. […] The substance 3,5DCl-Ph-U is 1-(3,5-dichlorophenyl)-3-phenylurea, which we have been prepared to compare its inhibitory activity with the compounds presented in the present invention. Addition of the amide group to the unsubstituted phenyl ring of this substance gives the compound 2AD-3,5DC, which has 42-fold better inhibitory activity with the ZmCKX1 enzyme than 3,5DCl-Ph-U. F-INCYDE ((2-fluoro-9H-purin-6-yl)-(3-methoxyphenyl)amine), CPPU (1-(2-chloropyridin-4-yl)-3-phenylurea), and DCPPU (1-(2,6-dichloropyridin-4-yl)-3-phenylurea) are substances known in the prior art.

T1 sequence (Q9T0N8 19-534): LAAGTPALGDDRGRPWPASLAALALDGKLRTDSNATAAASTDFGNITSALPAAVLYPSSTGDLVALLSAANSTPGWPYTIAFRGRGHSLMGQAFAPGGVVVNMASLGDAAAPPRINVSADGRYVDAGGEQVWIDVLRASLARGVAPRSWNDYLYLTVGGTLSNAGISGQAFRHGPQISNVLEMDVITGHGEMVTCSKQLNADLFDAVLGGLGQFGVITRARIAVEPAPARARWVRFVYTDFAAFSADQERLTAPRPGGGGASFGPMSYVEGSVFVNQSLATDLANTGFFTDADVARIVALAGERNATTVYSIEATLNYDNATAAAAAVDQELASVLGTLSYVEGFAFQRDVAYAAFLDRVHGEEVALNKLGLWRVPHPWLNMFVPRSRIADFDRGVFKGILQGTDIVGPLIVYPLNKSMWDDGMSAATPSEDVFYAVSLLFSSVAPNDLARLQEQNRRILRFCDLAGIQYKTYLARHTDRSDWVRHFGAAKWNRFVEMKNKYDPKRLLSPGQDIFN

Compound	IC50 [µM]
NNC(=O)c1ccc(Br)cc1NC(=O)Nc1cc(Cl)cc(Cl)c1 [compound 45, 1-(5-Bromo-2-hydrazinocarbonylphenyl)-3-(3,5-dichlorophenyl)-urea]	0.02
O=C(Nc1cc(Cl)cc(Cl)c1)Nc1cc(Br)ccc1C(=O)NCCO [compound 48, 4-Bromo-2-[3-(3,5-dichlorophenyl)ureido]-N-(2-hydroxy-ethyl)benzamide]	0.005
NCCNC(=O)c1ccc(Br)cc1NC(=O)Nc1cc(Cl)cc(Cl)c1 [compound 55, N-(2-Aminoethyl)-4-bromo-2-[3-(3,5-dichlorophenyl)ureido]benzamide]	0.01

same assay, conditions: 10 µM iP as substrate, pH 7.4, 30 min at 37 °C; average of at least two measurements; read-out: IC50 (µM) ZmCKX1

Compound	IC50 [µM]
CCCNC(=O)c1ccccc1NC(=O)Nc1cccc(F)c1 [compound 39, 2-[3-(3-fluorophenyl)ureido]-N-propylbenzamide]	0.17
CCCNC(=O)c1ccccc1NC(=O)Nc1cc(F)cc(F)c1 [compound 40, 2-[3-(3,5-difluorophenyl)ureido]-N-propylbenzamide]	0.062
CCCNC(=O)c1ccccc1NC(=O)Nc1cc(Cl)cc(Cl)c1 [compound 41, 2-[3-(3,5-dichlorophenyl)ureido]-N-propylbenzamide]	0.03
CCCNC(=O)c1ccc(OC)cc1NC(=O)Nc1cc(Cl)cc(Cl)c1 [compound 43, 2-[3-(3,5-dichlorophenyl)ureido]-4-methoxy-N-propylbenzamide]	0.004
NNC(=O)c1ccccc1NC(=O)Nc1cc(Cl)cc(Cl)c1 [compound 44, 1-(3,5-dichlorophenyl)-3-(2-hydrazinocarbonylphenyl)-urea]	0.074
COc1ccc(C(=O)NN)c(NC(=O)Nc2cc(Cl)cc(Cl)c2)c1 [compound 46, 1-(3,5-dichlorophenyl)-3-(2-hydrazinocarbonyl-5-methoxyphenyl)-urea]	0.018

Further lines, results first:

IC50 [µM]	Compound
0.022	O=C(Nc1cc(Cl)cc(Cl)c1)Nc1ccccc1C(=O)NCCO [compound 47, 2-[3-(3,5-dichlorophenyl)ureido]-N-(2-hydroxy-ethyl)benzamide]
0.04	COc1ccc(C(=O)NCCO)c(NC(=O)Nc2cccc(F)c2)c1 [compound 49, 2-[3-(3-fluorophenyl)ureido]-4-methoxy-N-(2-hydroxy-ethyl)benzamide]
0.003	COc1ccc(C(=O)NCCO)c(NC(=O)Nc2cc(Cl)cc(Cl)c2)c1 [compound 50, 2-[3-(3,5-dichlorophenyl)ureido]-4-methoxy-N-(2-hydroxyethyl)benzamide]
0.15	O=C(Nc1cccc(Cl)c1)Nc1ccccc1C(=O)NCCCO [compound 51, 2-[3-(3-chlorophenyl)ureido]-N-(3-hydroxy-propyl)benzamide]
0.02	COc1ccc(C(=O)NCCCO)c(NC(=O)Nc2cc(Cl)cc(Cl)c2)c1 [compound 53, 2-[3-(3,5-dichlorophenyl)ureido]-4-methoxy-N-(3-hydroxy-propyl)benzamide]
0.013	COc1ccc(C(=O)NCCN)c(NC(=O)Nc2cc(Cl)cc(Cl)c2)c1 [compound 56, 2-[3-(3,5-dichlorophenyl)ureido]-4-methoxy-N-(2-amino-ethyl)benzamide]
0.008	NCCNC(=O)c1ccc(OC(F)(F)F)cc1NC(=O)Nc1cc(Cl)cc(Cl)c1 [compound 57, 2-[3-(3,5-dichlorophenyl)ureido]-4-trifluoromethoxy-N-(2-amino-ethyl)benzamide]

same assay, conditions: read-out: IC50 (µM) ZmCKX1; 10 µM iP as substrate, pH 7.4, 30 min at 37 °C; average of at least two measurements

Compound	IC50 [µM]
CCCNC(=O)c1ccc(Cl)cc1NC(=O)Nc1cc(F)cc(F)c1 [compound 42, 4-chloro-2-[3-(3,5-difluorophenyl)ureido]-N-propylbenzamide]	0.022
O=C(Nc1cccc(Cl)c1)Nc1cc(Br)ccc1C(=O)NCCCO [compound 52, 4-bromo-2-[3-(3-chlorophenyl)ureido]-N-(3-hydroxy-propyl)benzamide]	0.08
NCCNC(=O)c1ccc(Br)cc1NC(=O)Nc1cccc(Cl)c1 [compound 54, 4-bromo-2-[3-(3-chlorophenyl)ureido]-N-(2-amino-ethyl)benzamide]	0.035
